In patent US20100298141A1, “SUBSTITUTED PYRIDINE N-OXIDE HERBICIDES” (E. I. DU PONT DE NEMOURS AND COMPANY, priority 2007, published 2010):

How the values were obtained:
barnyardgrass = assay: Test A pre-/postemergence greenhouse test; assay type: in vivo, Echinochloa crus-galli; conditions: for Plant response rating, Barnyardgrass: 0 to 100 scale where 0 is no effect and 100 is complete control; for Barnyardgrass plant response rating: 0 to 100 scale
Summary of the method: (§1)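 Greenhouse herbicide screen, pre- and postemergence in parallel. Soil: loam plus sand. Formulation: non-phytotoxic solvent mix with surfactant. Postemergence stage: one to two leaves, 2–10 cm height. Evaluation: visual injury, compared with untreated controls, about 10 days after treatment.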

velvetleaf = assay: Test C pre-/postemergence test; assay type: in vivo, Abutilon theophrasti
Summary of the method: (§2)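 Test chemicals were formulated with surfactant in a non-phytotoxic solvent and sprayed both on freshly planted seeds (preemergence) and on 1- to 4-leaf plants of 2–18 cm (postemergence). Flooded-paddy pots received compound directly into 3 cm of standing water, maintained for the test.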

johnsongrass = assay: Test C pre-/postemergence test; assay type: in vivo, Sorghum halepense
Summary of the method: as §2

morningglory = assay: Test C pre-/postemergence test; assay type: in vivo, Ipomoea coccinea
Summary of the method: as §2

Goosegrass = assay: Test C pre-/postemergence test; assay type: in vivo, Eleusin indica
Summary of the method: as §2

corn [1] = assay: Test C pre-/postemergence test; assay type: in vivo, Zea mays
Summary of the method: as §2

[2] = tested on: common (oilseed) sunflower; assay: Test C pre-/postemergence test; assay type: in vivo, Helianthus annuus
Summary of the method: as §2

corn [3] = assay: Test A pre-/postemergence greenhouse test; assay type: in vivo, Zea mays; conditions: for Plant response rating, Corn: 0 to 100 scale where 0 is no effect and 100 is complete control; for Corn plant response rating: 0 to 100 scale
Summary of the method: as §1

Italian ryegrass = assay: Test C pre-/postemergence test; assay type: in vivo, Lolium multiflorum
Summary of the method: as §2

pigweed = assay: Test C pre-/postemergence test; assay type: in vivo, Amaranthus retroflexus
Summary of the method: as §2

giant foxtail = assay: Test C pre-/postemergence test; assay type: in vivo, Setaria faberii
Summary of the method: as §2

umbrella sedge = assay: Test C flooded paddy test; assay type: in vivo, Cyperus difformis; conditions: Flood, 250 g ai/ha; scale 0 to 100, 0 no effect, 100 complete control; 13 to 15 days
Summary of the method: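 Compound was added to standing water 3 cm above soil, flood maintained, and plants held in a greenhouse before visual scoring against controls at 13 to 15 days.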

crabgrass [4] = assay: Test C pre-/postemergence test; assay type: in vivo, Digitaria sanguinalis
Summary of the method: as §2

eastern black nightshade = assay: Test C pre-/postemergence test; assay type: in vivo, Solanum ptycanthum; conditions: for Nightshade plant response rating: preemergence, scale 0 (no effect) to 100 (complete control)
Summary of the method: as §2

crabgrass [5] = assay: Test A pre-/postemergence greenhouse test; assay type: in vivo, Digitaria sanguinalis; conditions: for Plant response rating, Crabgrass, Large: 0 to 100 scale where 0 is no effect and 100 is complete control; for Crabgrass, Large plant response rating: 0 to 100 scale
Summary of the method: as §1

Surinam grass = assay: Test C pre-/postemergence test; assay type: in vivo, Brachiaria decumbens
Summary of the method: as §2

wheat = assay: Test A pre-/postemergence greenhouse test; assay type: in vivo, Triticum aestivum; conditions: for Plant response rating, Wheat: 0 to 100 scale where 0 is no effect and 100 is complete control; for Wheat plant response rating: 0 to 100 scale
Summary of the method: as §1

[6] = Postemergence, 500 g ai/ha, 0 is no effect, 100 is complete control
[7] = Preemergence, 125 g ai/ha, 0 no effect, 100 complete control
[8] = 62 g ai/ha, Preemergence, scale 0 to 100
[9] = 125 g ai/ha, preemergence, scale 0 (no effect) to 100 (complete control)
[10] = Preemergence, 31 g ai/ha, scale 0 to 100 (0 no effect, 100 complete control)
[11] = preemergence, 250 g ai/ha, scale 0 (no effect) to 100 (complete control)

Cn1nc(C(F)(F)F)c(C(Cl)S(=O)(=O)c2cccc[n+]2[O-])c1OC(F)F (stereo not shown) [Compound 51] was tested, and the “Plant response rating, Barnyardgrass” value (barnyardgrass; Postemergence, 125 g ai/ha) was 50, the “Barnyardgrass plant response rating” value (barnyardgrass; [6]) was 80 and the “Barnyardgrass plant response rating” value (barnyardgrass; [7]) was 90. The “Plant response rating, Barnyardgrass” value (barnyardgrass; Preemergence, 500 g ai/ha) was 100, the “Velvetleaf plant response rating” value (velvetleaf; [8]) was 0 and the “Velvetleaf plant response rating” value (velvetleaf; [9]) was 50. For the same compound, the “Plant response rating, Velvetleaf” value (velvetleaf; [10]) was 0, the “Velvetleaf plant response rating” value (velvetleaf; [11]) was 80 and the “Johnsongrass plant response rating” value (johnsongrass; [8]) was 95. For the same compound, the “Johnsongrass plant response rating” value (johnsongrass; [9]) was 98, the “Plant response rating, Johnsongrass” value (johnsongrass; [10]) was 75 and the “Johnsongrass plant response rating” value (johnsongrass; [11]) was 100. The “Morningglory plant response rating” value (morningglory; [8]) was 100, the “Morningglory plant response rating” value (morningglory; [9]) was 100 and the “Plant response rating, Morningglory” value (morningglory; [10]) was 100. For the same compound, the “Morningglory plant response rating” value (morningglory; [11]) was 100, the “Goosegrass plant response rating” value (Goosegrass; [8]) was 100 and the “Goosegrass plant response rating” value (Goosegrass; [9]) was 100. The “Plant response rating, Goosegrass” value (Goosegrass; [10]) was 100, the “Goosegrass plant response rating” value (Goosegrass; [11]) was 100 and the “Corn plant response rating” value (corn [1]; [8]) was 0. For the same compound, the “Corn plant response rating” value (corn [1]; [9]) was 50, the “Plant response rating, Corn” value (corn [1]; [10]) was 0 and the “Corn plant response rating” value (corn [1]; [11]) was 50. The “Sunflower plant response rating” value [2, 8] was 0, the “Sunflower plant response rating” value [2, 9] was 0 and the “Plant response rating, Sunflower” value [2, 10] was 0. The “Sunflower plant response rating” value [2, 11] was 0, the “Plant response rating, Corn” value (corn [3]; Postemergence, 125 g ai/ha) was 0 and the “Corn plant response rating” value (corn [3]; [6]) was 20. The “Corn plant response rating” value (corn [3]; [7]) was 0, the “Plant response rating, Corn” value (corn [3]; Preemergence, 500 g ai/ha) was 0 and the “Ryegrass, Italian plant response rating” value (Italian ryegrass; [8]) was 30. For the same compound, the “Ryegrass, Italian plant response rating” value (Italian ryegrass; [9]) was 80, the “Plant response rating, Ryegrass, Italian” value (Italian ryegrass; [10]) was 0 and the “Ryegrass, Italian plant response rating” value (Italian ryegrass; [11]) was 80. The “Pigweed plant response rating” value (pigweed; [8]) was 100, the “Pigweed plant response rating” value (pigweed; [9]) was 100 and the “Plant response rating, Pigweed” value (pigweed; [10]) was 85. For the same compound, the “Pigweed plant response rating” value (pigweed; [11]) was 100, the “Foxtail, Giant plant response rating” value (giant foxtail; [8]) was 50 and the “Foxtail, Giant plant response rating” value (giant foxtail; [9]) was 90. For the same compound, the “Plant response rating, Foxtail, Giant” value (giant foxtail; [10]) was 10, the “Foxtail, Giant plant response rating” value (giant foxtail; [11]) was 100 and the “Plant response rating, Sedge, Umbrella” value (umbrella sedge) was 95. The “Crabgrass, Large plant response rating” value (crabgrass [4]; [8]) was 100, the “Crabgrass, Large plant response rating” value (crabgrass [4]; [9]) was 100 and the “Plant response rating, Crabgrass, Large” value (crabgrass [4]; [10]) was 65. For the same compound, the “Crabgrass, Large plant response rating” value (crabgrass [4]; [11]) was 100, the “Nightshade plant response rating” value (eastern black nightshade; 125 g ai/ha) was 85 and the “Plant response rating, Nightshade” value (eastern black nightshade; [10]) was 0. For the same compound, the “Nightshade plant response rating” value (eastern black nightshade; 250 g ai/ha) was 100, the “Plant response rating, Crabgrass, Large” value (crabgrass [5]; Postemergence, 125 g ai/ha) was 60 and the “Crabgrass, Large plant response rating” value (crabgrass [5]; [6]) was 90. For the same compound, the “Crabgrass, Large plant response rating” value (crabgrass [5]; [7]) was 70, the “Plant response rating, Crabgrass, Large” value (crabgrass [5]; Preemergence, 500 g ai/ha) was 90 and the “Surinam Grass plant response rating” value (Surinam grass; [8]) was 10. The “Surinam Grass plant response rating” value (Surinam grass; [9]) was 98, the “Plant response rating, Surinam Grass” value (Surinam grass; [10]) was 10 and the “Surinam Grass plant response rating” value (Surinam grass; [11]) was 100. For the same compound, the “Plant response rating, Wheat” value (wheat; Postemergence, 125 g ai/ha) was 40, the “Wheat plant response rating” value (wheat; [6]) was 60 and the “Wheat plant response rating” value (wheat; [7]) was 30. The “Plant response rating, Wheat” value (wheat; Preemergence, 500 g ai/ha) was 50.
